Results on 30 compounds are retold here after US20040044008A1, “Use of therapeutic benzamide derivatives” (priority 2000, published 2004).

For one series, the target named is human MTP (Homo sapiens, UniProt P55157). The series is described as follows: human MTP activity assay (SPA, 3H-triolein transfer between liposomes). The series is classed as biochemical. As to conditions: human MTP-mediated 3H-triolein transfer from donor to acceptor liposomes, 25 min incubation at 37° C., streptavidin-SPA beads. The source says: Such derivatives are clear to those skilled in the art, without undue experimentation, and with reference to the teaching of Burger's Medicinal Chemistry And Drug Discovery, 5th Edition, Vol 1: Principles And Practice, which is incorporated herein by reference. […] MTP inhibitors may be used in the treatment of non-insulin dependent diabetes mellitus, insulin resistance, coronary heart disease, prevention of stroke, pancreatitis, hypercholesterolemia, hypertriglyceridemia, hyperlipemia, mixed dyslipidemia, post-prandial hyperlipemia, atherosclerosis and obesity. The ability of the compounds of this invention to inhibit human MTP activity is measured by an in vitro assay where MTP transfers 3H-triolein between phosphatidylcholine liposomes. The specificity of the compounds of the invention is established by comparing the effects on apoB-100 and apoprotein A-1 production. A specificity of at least 100 is preferred.
The human MTP activity assay was established using SPA technology. Donor liposomes were prepared with 3H-triolein and phosphatidylcholine, while acceptor liposomes contained biotinylated phosphatidylethanolamine and phosphatidylcholine. The MTP-mediated 3H-triolein transfer onto acceptor liposomes was allowed by a 25 min incubation at 37° C., and quantified by the addition of streptavidin-SPA beads.

Chain of human MTP (P55157 19-894): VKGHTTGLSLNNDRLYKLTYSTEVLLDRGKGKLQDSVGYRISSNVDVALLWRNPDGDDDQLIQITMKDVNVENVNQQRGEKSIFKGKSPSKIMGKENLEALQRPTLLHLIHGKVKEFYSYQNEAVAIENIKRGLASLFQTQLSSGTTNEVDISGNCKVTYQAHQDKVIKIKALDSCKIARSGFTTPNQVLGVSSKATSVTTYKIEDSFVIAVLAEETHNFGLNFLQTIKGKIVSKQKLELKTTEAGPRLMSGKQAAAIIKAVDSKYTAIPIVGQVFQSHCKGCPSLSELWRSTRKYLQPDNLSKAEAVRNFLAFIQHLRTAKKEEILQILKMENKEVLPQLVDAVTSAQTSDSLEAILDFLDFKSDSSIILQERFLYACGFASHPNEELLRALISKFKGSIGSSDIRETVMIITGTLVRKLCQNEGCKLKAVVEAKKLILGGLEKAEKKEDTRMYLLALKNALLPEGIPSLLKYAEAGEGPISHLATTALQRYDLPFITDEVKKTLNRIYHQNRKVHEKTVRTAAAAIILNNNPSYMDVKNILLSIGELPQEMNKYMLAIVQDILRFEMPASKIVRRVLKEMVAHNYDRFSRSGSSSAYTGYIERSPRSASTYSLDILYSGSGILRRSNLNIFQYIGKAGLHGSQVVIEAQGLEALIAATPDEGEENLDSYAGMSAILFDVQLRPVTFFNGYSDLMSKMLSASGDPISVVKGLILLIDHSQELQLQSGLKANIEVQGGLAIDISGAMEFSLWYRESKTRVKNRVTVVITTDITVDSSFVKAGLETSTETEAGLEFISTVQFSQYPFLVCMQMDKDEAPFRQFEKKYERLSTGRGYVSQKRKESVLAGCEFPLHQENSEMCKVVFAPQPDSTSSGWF
Chain of human MTP (P07237 18-508 partner): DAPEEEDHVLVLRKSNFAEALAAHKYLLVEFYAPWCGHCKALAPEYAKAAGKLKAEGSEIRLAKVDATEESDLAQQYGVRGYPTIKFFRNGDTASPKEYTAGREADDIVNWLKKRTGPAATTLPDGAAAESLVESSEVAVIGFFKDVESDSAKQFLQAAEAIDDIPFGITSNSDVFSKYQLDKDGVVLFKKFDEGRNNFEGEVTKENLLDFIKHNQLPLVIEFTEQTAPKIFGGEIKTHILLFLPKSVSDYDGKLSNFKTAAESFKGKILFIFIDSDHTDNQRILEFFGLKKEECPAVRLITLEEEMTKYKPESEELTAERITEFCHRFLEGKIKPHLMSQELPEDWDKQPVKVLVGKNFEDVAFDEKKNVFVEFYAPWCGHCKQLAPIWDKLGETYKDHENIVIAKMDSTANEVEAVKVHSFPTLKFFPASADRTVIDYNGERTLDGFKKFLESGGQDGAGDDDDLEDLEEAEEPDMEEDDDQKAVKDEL

Broadly, the IC50 is the concentration at which inhibition is half-maximal. Read a low IC50 as inhibition by little substance. For the compound `Cc1noc(-c2cccc(CN3CCN(c4ccc(NC(=O)c5cccc(C)c5-c5ccc(C(C)C)cc5)cc4)CC3)c2)n1` [Example 61, 4′-Isopropyl-6-methyl-biphenyl-2-carboxylic acid (4-(4-(3-(3-methyl-[1,2,4]oxadiazol-5-yl)-benzyl)-piperazine-1-yl)-phenyl)-amide], the IC50 against human MTP turned out to be 0.2 nM. Take “5-Methyl-4′-trifluoromethyl-biphenyl-2-carboxylic acid [-(4-(1H-pyrrol-2-ylmethyl)-piperazin-1-yl)-phenyl]-amide [Example 64]”: the IC50 at human MTP was 0.26 nM. The IC50 values of the last two compounds are within 1.5-fold of each other.

As for `Cc1cccc(C(=O)Nc2ccc(N3CCN(Cc4cccc(C#N)c4)CC3)cc2)c1-c1ccc(C(C)C)cc1` [Example 4, 4′-Isopropyl-6-methyl-biphenyl-2-carboxylic acid [4-[4-(3-cyano-benzyl)-piperazin-1-yl]-phenyl]-amide], the IC50 against human MTP came to 0.2 nM. The IC50 values of the last two compounds are within 1.5-fold of each other.

With `Cc1ccc(C(=O)Nc2ccc(N3CCN(Cc4cccc(-c5nc(C)no5)c4)CC3)cc2)c(-c2ccc(C(C)C)cc2)c1` [Example 6], the IC50 on human MTP was 0.3 nM. In the case of `COc1cccc(C(=O)Nc2ccc(N3CCN(CC(N)=O)CC3)cc2)c1-c1ccc(C(C)C)cc1` [Example 38, 4′-Isopropyl-6-methoxy-biphenyl-2-carboxylic acid [4-(4-carbamoylmethyl-piperazin-1-yl)-phenyl]-amide], the half-maximal inhibitory concentration (IC50) against human MTP amounted to 0.3 nM. That is a sub-nanomolar value. With `Cc1cccc(C(=O)Nc2ccc(N3CCN(CC(N)=O)CC3)cc2)c1-c1ccc(C(C)C)cc1` [Example 39, 4′-Isopropyl-6-methyl-biphenyl-2-carboxylic acid (4-(4-carbamoylmethyl-piperazin-1-yl)-phenyl]-amide], on human MTP, inhibition was half-maximal at 0.3 nM (IC50). Turning to `Cc1ccc(C(=O)Nc2ccc(N3CCN(Cc4ccc[nH]4)CC3)cc2)c(-c2ccc(C(C)C)cc2)c1` [Example 63, 4′-Isopropyl-5-methyl-biphenyl-2-carboxylic acid [4-(4-(1H-pyrrol-2-ylmethyl)-piperazin-1-yl)-phenyl]-amide], the IC50 against human MTP amounted to 0.7 nM. As a reminder, the melting point is the temperature of the solid-liquid transition. Compound `Cc1cccc(C(=O)Nc2ccc(N3CCN(CC(N)=O)CC3)cc2)c1-c1ccc(C(F)(F)F)cc1` [Example 40, 6-Methyl4′-trifluoromethyl-biphenyl-2-carboxylic acid [4-(4-carbamoylmethyl-piperazin-1-yl)-phenyl]-amide] displayed a melting point of 196 to 198 °C.

In the case of `Cc1cccc(C(=O)Nc2ccc(N3CCN(Cc4cccc(C#N)c4)CC3)cc2)c1-c1ccc(C(F)(F)F)cc1` [Example 5, 6-Methyl-4′-trifluoromethyl-biphenyl-2-carboxylic acid [4-[4-(3-cyano-benzyl)-piperazin-1-yl]-phenyl]-amide], on human MTP, the IC50 was 0.2 nM. In other words, the sub-nanomolar range. In turn, `O=C(Nc1ccc(N2CCN(Cc3c[nH]c4ccc(F)cc34)CC2)cc1)c1ccccc1-c1ccc(C(F)(F)F)cc1` [Example 73, 4′-Trifluoromethyl-biphenyl-2-carboxylic acid {4-[4-(5-fluoro-1H-indol-3-ylmethyl)-piperazin-1-yl]-phenyl}-amide] yielded a melting point of 168 to 170 °C.

The compound `O=C(Nc1ccc(N2CCN(Cc3cnccn3)CC2)cc1)c1ccccc1-c1ccc(C(F)(F)F)cc1` [Example 58, 4′-Trifluoromethyl-biphenyl-2-carboxylic acid [4-(4-pyrazin-2-ylmethyl-piperazin-1-yl)-phenyl]-amide] displayed a melting point of 183 to 185 °C. Take `N#Cc1cccc(CN2CCN(c3ccc(NC(=O)c4ccccc4-c4ccc(F)cc4)cc3)CC2)c1` [Example 23, 4′-Fluoro-biphenyl-2-carboxylic acid [4-[4-(3-cyano-benzyl)-piperazin-1-yl]-phenyl]-amide]: the melting point lay in the range of 200 to 202 °C. Still for that read-out and setting: next, `N#Cc1cc(CN2CCN(c3ccc(NC(=O)c4ccccc4-c4ccc(C(F)(F)F)cc4)cc3)CC2)ccc1F` [Example 47, 4′-Trifluoromethyl-biphenyl-2-carboxylic acid [4-(4-(3-cyano-4-fluoro-benzyl)-piperazin-1-yl)-phenyl]-amide]: 168 to 170 °C; `CCCN1CCN(c2ccc(NC(=O)c3ccccc3-c3ccc(C(F)(F)F)cc3)cc2)CC1` [Example 65, 4′-Trifluoromethyl-biphenyl-2-carboxylic acid [4-(4-propyl-piperazin-1-yl)-phenyl]-amide]: 207 to 209 °C; `N#Cc1cccc(CN2CCN(c3ccc(NC(=O)c4ccccc4-c4ccccn4)cc3)CC2)c1` [Example 86, N-{4-[4-(3-Cyano-benzyl)-piperazin-1-yl]-phenyl}-2-pyridin-2-yl-benzamide]: 169 to 171 °C. Take `CC(C)c1ccc(-c2ccccc2C(=O)Nc2ccc(N3CCN(Cc4cccc(C#N)c4)CC3)cc2)cc1` [Example 16, 4′-Isopropyl-biphenyl-2-carboxylic acid [4-[4-(3-cyano-benzyl)-piperazin-1-yl]-phenyl]-amide]: the melting point lay in the range of 133 to 135 °C. In turn, `Cc1ccc(C(=O)Nc2ccc(N3CCN(Cc4cccc(C#N)c4)CC3)cc2)c(-c2ccc(C(F)(F)F)cc2)c1` [Example 9, 5-Methyl-4′-trifluoromethyl-biphenyl-2-carboxylic acid [4-[4-(3-cyano-benzyl)-piperazin-1-yl]-phenyl]-amide] yielded a melting point of 166 to 168 °C. For the compound `CC(=O)c1cccc(CN2CCN(c3ccc(NC(=O)c4ccccc4-c4ccc(C(F)(F)F)cc4)cc3)CC2)c1` [Example 66, 4′-Trifluoromethyl-biphenyl-2-carboxylic acid [4-(4-(3-acetyl-benzyl)-piperazin-1-yl)-phenyl]-amide], the melting point was 181 to 183 °C.

With `O=C(Nc1ccc(N2CCN(CCCO)CC2)cc1)c1ccccc1-c1ccc(C(F)(F)F)cc1` [Example 44, 4′-Trifluoromethyl-biphenyl-2-carboxylic acid [4-(4-(3-hydroxy-propyl)-piperazin-1-yl]-phenyl]-amide], the melting point was 208 to 210 °C.

`COc1cccc(C(=O)Nc2ccc(N3CCN(Cc4cccc(C#N)c4)CC3)cc2)c1OCc1ccc(F)cc1` [Example 29, N-[4-[4-(3-Cyano-benzyl)-piperazin-1-yl]-phenyl]-2-(4-fluoro-benzyloxy)-3-methoxy-benzamide] yielded a melting point of 118 to 120 °C. As to `COc1ccc(-c2ccccc2C(=O)Nc2ccc(N3CCN(Cc4cccc(C#N)c4)CC3)cc2)cc1`, the melting point is 124 to 128 °C. `COc1ccc(C(=O)Nc2ccc(N3CCN(Cc4cccc(C#N)c4)CC3)cc2)c(-c2ccccc2)c1` [Example 12, 5-Methoxy-biphenyl-2-carboxylic acid [4-[4-(3-cyano-benzyl)-piperazin-1-yl]-phenyl]-amide] returned a melting point of 159 to 161 °C. In turn, `COc1cccc(C(=O)Nc2ccc(N3CCN(Cc4cccc(C#N)c4)CC3)cc2)c1OCCC1CCCCC1` [Example 31, N-[4-[4-(3-Cyano-benzyl)-piperazin-1-yl]-phenyl]-2-(2-cyclohexyl-ethoxy)-3-methoxy-benzamide] showed a melting point of 102 to 104 °C.

As to `O=C(Nc1ccc(N2CCN(Cc3ccccn3)CC2)cc1)c1ccccc1-c1ccc(C(F)(F)F)cc1` (hydrate or solvate) [Example 57, 4′-Trifluoromethyl-biphenyl-2-carboxylic acid [4-(4-pyridin-2-ylmethyl-piperazin-1-yl)-phenyl]-amide], the melting point was 168 to 170 °C. For the compound `O=C(Nc1ccc(N2CCN(Cc3cccc(-c4noc(C(F)(F)F)n4)c3)CC2)cc1)c1ccccc1-c1ccc(C(F)(F)F)cc1` [Example 75, 4′-Trifluoromethyl-biphenyl-2-carboxylic acid (4-{4-[3-(5-trifluoromethyl-[1,2,4]oxadiazol-3-yl)-benzyl]-piperazin-1-yl}-phenyl)-amide], the melting point lay in the range of 188 to 190 °C. `O=C(Nc1ccc(N2CCN(Cc3ccco3)CC2)cc1)c1ccccc1-c1ccc(C(F)(F)F)cc1` [Example 67, 4′-Trifluoromethyl-biphenyl-2-carboxylic acid [4-(4-furan-2-ylmethyl-piperazin-1-yl)-phenyl]-amide] displayed a melting point of 173 to 175 °C. The compound `COc1ccc(-c2ccc(C(F)(F)F)cc2)c(C(=O)Nc2ccc(N3CCN(Cc4cccc(C#N)c4)CC3)cc2)c1` [Example 19, 4-Methoxy-4′-trifluoromethyl-biphenyl-2-carboxylic acid [4-[4-(3-cyano-benzyl)-piperazin-1-yl]-phenyl]-amide] displayed a melting point of 151 to 155 °C.

In turn, `O=C(Nc1ccc(N2CCN(CCCC(F)(F)F)CC2)cc1)c1ccccc1-c1ccc(C(F)(F)F)cc1` [Example 45, 4′-Trifluoromethyl-biphenyl-2-carboxylic acid [4-(4-(4,4,4-trifluoro-butyl)-piperazin-1-yl]-phenyl]-amide] gave a melting point of 198 to 200 °C. `COC(=O)c1cccc(CN2CCN(c3ccc(NC(=O)c4ccccc4-c4ccc(C(F)(F)F)cc4)cc3)CC2)c1` [Example 55, 4′-Trifluoromethyl-biphenyl-2-carboxylic acid [4-[4-(3-carbomethoxy-benzyl)-piperazin-1-yl]-phenyl]-amide]: the melting point lay in the range of 190 to 192 °C. As for `COc1cccc(C(=O)Nc2ccc(N3CCN(Cc4cccc(C#N)c4)CC3)cc2)c1-c1ccc(C(F)(F)F)cc1` [Example 8, 6-Methoxy-4′-trifluoromethyl-biphenyl-2-carboxylic acid [4-[4-(3-cyano-benzyl)-piperazin-1-yl]-phenyl]-amide], the melting point lay in the range of 215 to 217 °C.
